Patent US20260116868A1 (Arcus Biosciences, Inc., priority 2023, published 2026)
pIC50: −log10 of the molar value.

biological target: T1, Cbl-b (Homo sapiens, UniProt Q13191); assay: Cbl-b probe displacement HTRF binding assay; conditions: 0.4 nM Cbl-b, 150 nM BODIPY probe
T1 construct: biotin (biotinylated protein)
Outline: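 Compound competes with BODIPY probe (150 nM) for biotinylated Cbl-b (0.4 nM) in HEPES/NaCl/Triton/TCEP/BSA buffer; 60 min preincubation, 15 min with probe, room temperature. Tb-streptavidin HTRF read; % displacement vs DMSO and no-protein controls, IC50 from four-parameter fit.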

T1 sequence (Q13191 whole entry, species assumed): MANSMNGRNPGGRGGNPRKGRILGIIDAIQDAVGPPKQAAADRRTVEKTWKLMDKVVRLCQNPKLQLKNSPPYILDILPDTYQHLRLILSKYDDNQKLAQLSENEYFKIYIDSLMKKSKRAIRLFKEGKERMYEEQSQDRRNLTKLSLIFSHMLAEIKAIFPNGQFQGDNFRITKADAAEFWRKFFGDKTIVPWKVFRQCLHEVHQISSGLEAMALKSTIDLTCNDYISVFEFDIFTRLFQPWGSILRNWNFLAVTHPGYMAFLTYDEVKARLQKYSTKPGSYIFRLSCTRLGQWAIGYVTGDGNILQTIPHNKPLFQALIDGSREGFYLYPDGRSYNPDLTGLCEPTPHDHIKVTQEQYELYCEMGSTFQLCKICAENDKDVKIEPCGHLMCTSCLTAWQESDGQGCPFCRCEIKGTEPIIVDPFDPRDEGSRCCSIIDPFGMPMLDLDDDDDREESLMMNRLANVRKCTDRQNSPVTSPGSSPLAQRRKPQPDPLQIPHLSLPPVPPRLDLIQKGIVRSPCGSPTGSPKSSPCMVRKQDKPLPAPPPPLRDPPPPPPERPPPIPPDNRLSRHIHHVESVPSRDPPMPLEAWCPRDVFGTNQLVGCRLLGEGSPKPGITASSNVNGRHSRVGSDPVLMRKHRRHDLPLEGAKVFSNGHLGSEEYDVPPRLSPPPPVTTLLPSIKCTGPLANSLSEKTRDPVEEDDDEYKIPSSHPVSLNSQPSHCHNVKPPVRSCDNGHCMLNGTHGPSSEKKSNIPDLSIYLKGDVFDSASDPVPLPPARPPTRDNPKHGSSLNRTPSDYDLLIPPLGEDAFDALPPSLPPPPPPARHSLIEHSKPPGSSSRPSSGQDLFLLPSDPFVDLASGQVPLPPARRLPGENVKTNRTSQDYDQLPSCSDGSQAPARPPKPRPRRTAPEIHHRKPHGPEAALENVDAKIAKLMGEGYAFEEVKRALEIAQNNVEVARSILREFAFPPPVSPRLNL

pIC50, > 7.00:
CCOc1cc(-c2c(F)cc(C#N)cc2C(=O)N2CC(F)(F)C2)cc(NC(=O)c2cc(CNC[C@@H]3CCCO3)cn(C)c2=O)n1 [Example 118, N-[4-[4-cyano-2-(3,3-difluoroazetidine-1-carbonyl)-6-fluorophenyl]-6-ethoxypyridin-2-yl]-1-methyl-2-oxo-5-[[[(2S)-oxolan-2-yl]methylamino]methyl]pyridine-3-carboxamide]
CO[C@@H](C)CNCc1cc(C(=O)Nc2cc(-c3ccc(Cl)cc3C(=O)N3CC(F)C3)cc(NC(C)C)n2)c(=O)n(C2CC2)c1 [Example 258]
CCOc1cc(-c2c(F)cc(C#N)cc2C(=O)N2CC(F)(F)C2)cc(NC(=O)c2cc(CN[C@@H](C)C3CC3)cn(C)c2=O)n1 [Example 119, N-[4-[4-cyano-2-(3,3-difluoroazetidine-1-carbonyl)-6-fluorophenyl]-6-ethoxypyridin-2-yl]-5-[[[(1S)-1-cyclopropylethyl]amino]methyl]-1-methyl-2-oxopyridine-3-carboxamide]
N#Cc1ccc(-c2cc(NC(=O)c3cc(CNCCC(F)F)cn(C4CC4)c3=O)nc(C3CC3)c2)c(C(=O)N2CC(F)(F)C2)c1 [Example 381]
C[C@@H](CC(F)(F)F)NCc1cc(C(=O)Nc2cc(-c3ccc(C#N)cc3C(=O)N3CC(F)(F)C3)cc(C3CC3)n2)c(=O)n(C2CC2)c1 [Example 243]
CO[C@@H](C)CNCc1cc(C(=O)Nc2cc(-c3ccc(C(F)F)cc3C(=O)N3CC(F)(F)C3)cc(C3CC3)n2)c(=O)n(C2CC2)c1 [Example 300]
CC(C)CCNCc1cc(C(=O)Nc2cc(-c3ccc(Cl)cc3C(=O)N3CC(F)(F)C3)cc(C3CC3)n2)c(=O)n(C2CC2)c1 [Example 410]
CC(C)Oc1cc(-c2ccc(Cl)cc2C(=O)N2CC(F)C2)cc(NC(=O)c2cc(CN[C@@H](C)C3CC3)cn(C3CC3)c2=O)n1 [Example 264]
CC(C)CNC(C)c1cc(C(=O)Nc2cc(-c3ccc(C#N)cc3C(=O)N3CC(F)(F)C3)cc(C3CC3)n2)c(=O)n(C2CC2)c1 (centres unmarked) [Example 326]
COc1ccc(-c2cc(NC(=O)c3cc(CN[C@@H](C)[C@H](C)OC)cn(C)c3=O)nc(C3CC3)c2)c(C(=O)N2CC(F)C2)c1 [Example 313]
O=C(Nc1cc(-c2c(F)cc(Cl)cc2C(=O)N2CC(F)(F)C2)cc(C2CC2)n1)c1cc(CNC[C@@H]2CCCCO2)cn(C2CC2)c1=O [Example 146, N-(4-{4-chloro-2-[(3,3-difluoro-1-azetidinyl)carbonyl]-6-fluorophenyl}-6-cyclopropyl-2-pyridyl)-1-cyclopropyl-2-oxo-5-[({[(S)-tetrahydro-2H-pyran-2-yl]methyl}amino)methyl]-1,2-dihydronicotinamide]
CC(C)Oc1cc(-c2c(F)cc(C#N)cc2C(=O)N2CC(F)(F)C2)cc(NC(=O)c2cc(CNC[C@@H]3CCCO3)cn(C3CC3)c2=O)n1 [Example 101, N-[4-[4-cyano-2-(3,3-difluoroazetidine-1-carbonyl)-6-fluorophenyl]-6-propan-2-yloxypyridin-2-yl]-1-cyclopropyl-2-oxo-5-[[[(2S)-oxolan-2-yl]methylamino]methyl]pyridine-3-carboxamide]
COCCNCc1cc(C(=O)Nc2cc(-c3ccc(Cl)cc3C(=O)N(C)C)cc(C3CC3)n2)c(=O)n(C2CC2)c1 [Example 307]
O=C(Nc1cc(-c2c(F)cc(Cl)cc2C(=O)N2CC(F)(F)C2)cc(C2CC2)n1)c1cc(CNCC2CC2)cn(C2CC2)c1=O [Example 148, N-(4-{4-chloro-2-[(3,3-difluoro-1-azetidinyl)carbonyl]-6-fluorophenyl}-6-cyclopropyl-2-pyridyl)-1-cyclopropyl-5-{[(cyclopropylmethyl)amino]methyl}-2-oxo-1,2-dihydronicotinamide]
